Assay type in all cases: cell-based
In experiment [1] the test system is renal cells. Kind of experiment: MTT assay, cell viability of renal cells with or without cisplatin. As to the method:
To measure cell viability of renal cells by the Amomi Rotundus Fructus extract and the fraction thereof, MTT assay was performed. First, renal cells were seeded at a density of 1×10^4 cells per well of 96-well plate. After 24 hours, the cells were treated with each 50 μg thereof which was prepared by dilution at three final concentrations (50, 100, 200 μg/ml). After 2 hours, cisplatin was treated at a final concentration of 25 μg/ml, and cells were cultured for 24 hours. After 24 hours, 10 μl of the assay reagent of EZ-Cytox Cell Viability assay kit was added to each well using a Micro multi Pipette, taking care to introduce no bubbles, and reaction was allowed for 4 hours under basic culture conditions. Absorbance at 450 nm was measured. p<0.005 was considered statistically significant.
In general terms: Tetrazolium dyes change colour on reduction, which living cells bring about.

The test system of experiment [2] is p53. The experiment is described as follows: Examination of p53 expression pattern (western blot). The following applies: single treatment of cisplatin; FIG. 6. As to the method: Cells treated with Amomi Rotundus Fructus extract and/or cisplatin were harvested, and RIPA buffer was added thereto, followed by sonication for cell lysis. Centrifugation was performed at 15,000 rpm for 15 minutes, and the supernatant was obtained, and subjected to protein quantification by BCA assay. The protein was loaded at an amount of 20 μg/10 μl in each well, and 12% SDS-PAGE polyacrylamide gel electrophoresis was performed, and transferred to a nitrocellulose membrane. The membrane was blocked with 5% Skim milk-TBST, and then treated with primary antibody (anti-p53/dilution-1:300). p53 was detected with HRP conjugated anti-mouse IgG (dilution-1:5000) and immune reaction was visualized by ECL. The measurement results are shown as Mean±S.E.M. (standard error of mean) in FIG. 6. Data of the experimental results were analyzed using Microsoft Excel program, and post-test analysis using Bonferroni multiple comparison test was performed to investigate the differences between the groups. p<0.001 was considered statistically significant, and expressed as *; p<0.001 to compare with cisplatin.
Background: Immunoblotting shows a protein as a band on a membrane.

In experiment [3] the test system is renal cells. The experiment is described as follows: Measurement of ROS generation (DCF-DA). Particulars: single treatment, after 24 hours; based on 100% ROS generation of the control group; FIGS. 4a to 4e. The method, then:
In order to measure antioxidant effect of the Amomi Rotundus Fructus extract and the fraction thereof in renal cells, ROS generation test was performed. First, renal cells were seeded at a density of 1×10^5 cells per well of 96-well plate. After 24 hours, the cells were pre-treated with 100 μg of the Amomi Rotundus Fructus extract. 2 hours after treatment, cisplatin was treated at a final concentration of 25 μg/ml, followed by culture for 24 hours. DCF-DA dissolved in PBS was treated in the dark according to the treatment concentration of DCF-DA and the reaction time which were determined by historical data and preliminary experiment, and reaction was allowed for 5 hours under basic culture conditions. At the time point of 0, 4, 8, 12, 16, 20, 24 hr, end-point fluorescence wavelength at Ex: 485 nm and Em: 528 nm was measured at S=50.

In experiment [4] the test system is renal cells. Kind of experiment: Measurement of GSH content. Particulars: single treatment of cisplatin, culture 24 hours; FIGS. 5a to 5e. As to the method: Because GSH level is known as an index to evaluate a cell-protecting effect on drug-induced cellular injury, GSH level was measured to examine the cell-protecting effect of the Amomi Rotundus Fructus extract or the fraction thereof against cisplatin. The GSH levels were determined by monochlorobimane, and experiments for measuring GSH content were performed using the kidney tissues with reference to the conventional method of Fernandez-Checa and Kaplowitz. The number of cells, in which GSH is detectable, was determined by historical data and preliminary experiment, and 2×10^6 cells were seeded to each well of culture plate. After culture for 24 hours, the dilution fold of the final concentration of the drug determined as an active drug was considered and calculated, based on the results of MTT Assay and crystal violet Assay. […] Centrifugation was carried out at 10,000 rpm for 15 minutes, and then the supernatant was collected and used for BCA protein quantification. […] End-point fluorescence wavelength at Ex: 360 nm and Em: 460 nm was measured at S=70. Data of the experimental results were analyzed using Microsoft Excel program, and post-test analysis using Bonferroni multiple comparison test was performed to investigate the differences between the groups. p<0.001 was considered statistically significant.

SMILES strings stand for the structures. A value given as a limit tells only on which side of the number the result lay.

Experimental findings from patent US9737583B2, “Composition for prevention or treatment of acute renal failure including herbal extract or fraction thereof as active ingredient” (KOREA INSTITUTE OF ORIENTAL MEDICINE, priority 2012, dated 2017) are described below.

With `N.N.[Cl][Pt][Cl]` [cisplatin, cis-diaminedichloroplatinum II], the cell viability result in experiment [1] (pre-treatment 50, 100, 200 μg/ml, cisplatin 25 μg/ml after 2 hours, culture 24 hours, based on 100% cell viability of the control group, FIGS. 2a to 2e) is “remarkably reduced”. The same compound yielded a cell activity in experiment [1] (single treatment, based on 100% cell activity of the control group, FIGS. 3a to 3e) not above 40%. Besides, the p53 expression level result in experiment [2] was “remarkably increased”. Moreover, in experiment [3], the ROS generation is reported as not below 170%. Besides, in experiment [4], the GSH content result is listed as “reduced”.
